Experimental data reported in US9145373B2, “Certain kynurenine-3-monooxygenase inhibitors, pharmaceutical compositions, and methods of use thereof” (CHDI FOUNDATION, INC., priority 2008, dated 2015).

Target: T1, KMO mouse enzyme (Mus musculus, UniProt Q91WN4)
T1 construct: KMO enzyme prepared at Evotec from mouse liver (4-6 weeks old) via mitochondria isolation; from tissue; host or cells: mouse liver (4-6 weeks old), mitochondria isolation, prepared at Evotec
Test: KMO mouse enzyme assay: L-Kynurenine hydroxylation to 3-Hydroxy-Kynurenine monitored by LC/MS (MRM)
Assay type: biochemical
Conditions: compound at 10 μM, KMO enzyme from mouse liver mitochondria; for inhibition at 10 µM: read-out: INH.Mouse @ 10 μM
Summary of the method: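 Enzyme is a mitochondrial preparation from 4-6-week-old mouse liver, with L-kynurenine as substrate in potassium phosphate buffer, pH 7.4. 3-Hydroxy-kynurenine formed is quantified by LC/MS using multiple reaction monitoring. Compound stocks were 10 mM in DMSO.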

T1 sequence (Q91WN4 whole entry): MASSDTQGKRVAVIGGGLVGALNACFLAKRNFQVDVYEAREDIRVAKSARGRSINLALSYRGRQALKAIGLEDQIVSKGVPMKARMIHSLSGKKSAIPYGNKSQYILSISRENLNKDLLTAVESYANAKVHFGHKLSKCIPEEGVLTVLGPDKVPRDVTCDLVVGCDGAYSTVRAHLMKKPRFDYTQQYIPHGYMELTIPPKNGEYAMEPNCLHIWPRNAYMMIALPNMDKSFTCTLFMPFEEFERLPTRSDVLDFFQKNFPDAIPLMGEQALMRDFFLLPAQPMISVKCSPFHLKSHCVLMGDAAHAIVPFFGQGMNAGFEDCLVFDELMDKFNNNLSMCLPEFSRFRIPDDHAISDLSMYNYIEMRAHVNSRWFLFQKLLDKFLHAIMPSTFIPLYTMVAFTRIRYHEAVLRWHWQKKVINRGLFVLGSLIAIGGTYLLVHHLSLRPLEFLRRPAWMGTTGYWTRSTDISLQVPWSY

SMILES	inhibition at 10 µM [%]	INH.Mouse @ 10 μM
O=C(c1cc(-c2cccc(Cl)c2)ncn1)N1CCc2cc(Cl)ccc21 [(5-Chloro-2,3-dihydro-indol-1-yl)-[6-(3-chloro-phenyl)-pyrimidin-4-yl]-methanone]	100	–
NC(=O)[C@H]1CCCN1C(=O)c1cc(-c2cccc(Cl)c2)ncn1 [(R)-1-[6-(3-Chloro-phenyl)-pyrimidine-4-carbonyl]-pyrrolidine-2-carboxylic acid amide]	95.4	–
NC(=O)[C@@H]1CCCN1C(=O)c1cc(-c2cccc(Cl)c2)ncn1 [(S)-1-[6-(3-Chloro-phenyl)-pyrimidine-4-carbonyl]-pyrrolidine-2-carboxylic acid amide]	91.1	–
O=C(c1cc(-c2cccc(Cl)c2)ncn1)N1CCC1 [Azetidin-1-yl-[6-(3-chloro-phenyl)-pyrimidin-4-yl]-methanone]	100	–
COc1ccc(S(=O)(=O)Nc2cc(-c3ccc(Cl)c(Cl)c3)ncn2)cc1OC [N-[6-(3,4-Dichloro-phenyl)-pyrimidin-4-yl]-3,4-dimethoxy-benzenesulfonamide]	85	–
CS(=O)(=O)Nc1cc(-c2ccc(Cl)c(Cl)c2)ncn1 [N-[6-(3,4-Dichloro-phenyl)-pyrimidin-4-yl]-methanesulfonamide]	51.2	–
CS(=O)(=O)NC(=O)c1cc(-c2cccc(Cl)c2)ncn1 [N-[6-(3-Chloro-phenyl)-pyrimidine-4-carbonyl]-methanesulfonamide]	99.5	–
O=S(=O)(O)c1cc(-c2cccc(Cl)c2)ncn1 [Sodium; 6-(3-chloro-phenyl)-pyrimidine-4-sulfonate]	97.1	–
O=C(c1cc(-c2ccc(Cl)c(Cl)c2)ccn1)N1CCc2ccccc21 [[4-(3,4-Dichloro-phenyl)-pyridin-2-yl]-(2,3-dihydro-indol-1-yl)-methanone]	96.6	–
O=C(c1cc(-c2cc(Cl)cc(Cl)c2)ccn1)N1CCc2ccccc21 [[4-(3,5-Dichloro-phenyl)-pyridin-2-yl]-(2,3-dihydro-indol-1-yl)-methanone]	54.5	–
O=C(c1cc(-c2cccc(Cl)c2)ccn1)N1CCc2ccccc21 [[4-(3-Chloro-phenyl)-pyridin-2-yl]-(2,3-dihydro-indol-1-yl)-methanone]	100	–
O=C(c1cc(-c2ccc(Cl)c(Cl)c2)ncn1)N1Cc2ccccc2C1 [[6-(3,4-Dichloro-phenyl)-pyrimidin-4-yl]-(1,3-dihydro-isoindol-2-yl)-methanone]	63.5	–
O=C(c1cc(-c2ccc(Cl)c(Cl)c2)ncn1)N1CC2(CC2)c2ccccc21 [[6-(3,4-Dichloro-phenyl)-pyrimidin-4-yl]-(1′,2′-dihydro-spiro[cyclopropane-1,3′-[3H]indol]-1′)-methanone]	–	100.0
O=C(c1cc(-c2ccc(Cl)c(Cl)c2)ncn1)N1CCc2ccccc21 [[6-(3,4-Dichloro-phenyl)-pyrimidin-4-yl]-(2,3-dihydro-indol-1-yl)-methanone]	100	–
O=C(c1cc(-c2ccc(Cl)c(Cl)c2)ncn1)N1CCCc2ccccc21 [[6-(3,4-Dichloro-phenyl)-pyrimidin-4-yl]-(3,4-dihydro-2H-quinolin-1-yl)-methanone]	92.6	–
O=C(c1cc(-c2ccc(Cl)c(Cl)c2)ncn1)N1CCc2cc(F)ccc21 [[6-(3,4-Dichloro-phenyl)-pyrimidin-4-yl]-(5-fluoro-2,3-dihydro-indol-1-yl)-methanone]	100	–
O=C(c1cc(-c2cc(Cl)cc(Cl)c2)ncn1)N1CCc2ccccc21 [[6-(3,5-Dichloro-phenyl)-pyrimidin-4-yl]-(2,3-dihydro-indol-1-yl)-methanone]	98.3	–
O=C(c1cc(-c2cccc(Cl)c2)ncn1)N1Cc2ccccc2C1 [[6-(3-Chloro-phenyl)-pyrimidin-4-yl]-(1,3-dihydro-isoindol-2-yl)-methanone]	100	–
O=C(c1cc(-c2cccc(Cl)c2)ncn1)N1CCc2ccccc21 [[6-(3-Chloro-phenyl)-pyrimidin-4-yl]-(2,3-dihydro-indol-1-yl)-methanone]	100	–
O=C(c1cc(-c2cccc(Cl)c2)ncn1)N1CCc2cnccc21 [[6-(3-Chloro-phenyl)-pyrimidin-4-yl]-(2,3-dihydro-pyrrolo[3,2-c]pyridin-1-yl)-methanone]	100	–
CC1Cc2ccccc2N1C(=O)c1cc(-c2cccc(Cl)c2)ncn1 (stereo not drawn) [[6-(3-Chloro-phenyl)-pyrimidin-4-yl]-(2-methyl-2,3-dihydro-indol-1-yl)-methanone]	76.9	–

Second part, the compound after the results:

inhibition at 10 µM [%]	INH.Mouse @ 10 μM	SMILES
100	–	O=C(c1cc(-c2cccc(Cl)c2)ncn1)N1CCCc2ccccc21 [[6-(3-Chloro-phenyl)-pyrimidin-4-yl]-(3,4-dihydro-2H-quinolin-1-yl)-methanone]
100	–	O=C(c1cc(-c2cccc(Cl)c2)ncn1)N1CCC(O)CC1 [[6-(3-Chloro-phenyl)-pyrimidin-4-yl]-(4-hydroxy-piperidin-1-yl)-methanone]
64.3	–	CN1CCN(C(=O)c2cc(-c3cccc(Cl)c3)ncn2)CC1 [[6-(3-Chloro-phenyl)-pyrimidin-4-yl]-(4-methyl-piperazin-1-yl)-methanone]
88.2	–	CC1CCN(C(=O)c2cc(-c3cccc(Cl)c3)ncn2)CC1 [[6-(3-Chloro-phenyl)-pyrimidin-4-yl]-(4-methyl-piperidin-1-yl)-methanone]
100	–	O=C(c1cc(-c2cccc(Cl)c2)ncn1)N1CCc2cc(F)ccc21 [[6-(3-Chloro-phenyl)-pyrimidin-4-yl]-(5-fluoro-2,3-dihydro-indol-1-yl)-methanone]
83.9	–	O=C(c1cc(-c2cccc(Cl)c2)ncn1)N1CC[C@@H](O)C1 [[6-(3-Chloro-phenyl)-pyrimidin-4-yl]-((R)-3-hydroxy-pyrrolidin-1-yl)-methanone]
84.9	–	O=C(c1cc(-c2cccc(Cl)c2)ncn1)N1CC[C@H](O)C1 [[6-(3-Chloro-phenyl)-pyrimidin-4-yl]-((S)-3-hydroxy-pyrrolidin-1-yl)-methanone]
100	–	O=C(c1cc(-c2cccc(Cl)c2)ncn1)N1CCOCC1 [[6-(3-Chloro-phenyl)-pyrimidin-4-yl]-morpholin-4-yl-methanone]
90.5	–	O=C(c1cc(-c2cccc(Cl)c2)ncn1)N1CCCC1 [[6-(3-Chloro-phenyl)-pyrimidin-4-yl]-pyrrolidin-1-yl-methanone]
